From the NIST ThermoML archive (doi:10.1021/je0504111)
Numbers after ± are expanded uncertainties.

What was measured:
[1] = 298.15 K; for surface tension liquid-gas: Drop volume; for mass density: 101.33 kPa, Liquid
[2] = refractive index (Na D-line) (dimensionless); settings: 298.15 K; 101.33 kPa; Liquid; Standard Abbe refractometry
[3] = xn = mol fraction of the nth substance listed; settings: 298.15 K; for surface tension liquid-gas: Drop volume; for mass density: 101 kPa, Liquid
[4] = refractive index (Na D-line) (dimensionless); xn = mol fraction of the nth substance listed; settings: 298.15 K, 101 kPa, Liquid

`Cc1cccc(C)c1` [1,3-dimethylbenzene] gave a surface tension liquid-gas [1] of 28.03 ± 0.21 mN/m, a mass density [1] of 859.78 ± 0.63 kg/m3 and a refractive index [2] of 1.4945 ± 0.0004.

Work on `Cc1cccc(C)c1` [1,3-dimethylbenzene] + CCCCCC yielded a surface tension liquid-gas ([3]; x2 = 0.0522) of 27.13 ± 0.2 mN/m, a surface tension liquid-gas ([3]; x2 = 0.0797) of 26.69 ± 0.2 mN/m and a surface tension liquid-gas ([3]; x2 = 0.1442) of 25.66 ± 0.19 mN/m. The surface tension liquid-gas ([3]; x2 = 0.2008) was 24.85 ± 0.18 mN/m, the surface tension liquid-gas ([3]; x2 = 0.2281) was 24.48 ± 0.18 mN/m and the surface tension liquid-gas ([3]; x2 = 0.3075) was 23.5 ± 0.17 mN/m. For the same compound, the surface tension liquid-gas ([3]; x2 = 0.3603) was 22.91 ± 0.17 mN/m, the surface tension liquid-gas ([3]; x2 = 0.4106) was 22.39 ± 0.16 mN/m and the surface tension liquid-gas ([3]; x2 = 0.4174) was 22.33 ± 0.16 mN/m. For the same compound, the surface tension liquid-gas ([3]; x2 = 0.5086) was 21.5 ± 0.16 mN/m, the surface tension liquid-gas ([3]; x2 = 0.5677) was 21.01 ± 0.15 mN/m and the surface tension liquid-gas ([3]; x2 = 0.6431) was 20.41 ± 0.15 mN/m. For the same compound, the surface tension liquid-gas ([3]; x2 = 0.6771) was 20.15 ± 0.15 mN/m, the surface tension liquid-gas ([3]; x2 = 0.7418) was 19.7 ± 0.14 mN/m and the surface tension liquid-gas ([3]; x2 = 0.7668) was 19.54 ± 0.14 mN/m. For the same compound, the surface tension liquid-gas ([3]; x2 = 0.8545) was 18.99 ± 0.14 mN/m, the surface tension liquid-gas ([3]; x2 = 0.8802) was 18.83 ± 0.14 mN/m and the surface tension liquid-gas ([3]; x2 = 0.96) was 18.29 ± 0.14 mN/m. The mass density ([3]; x2 = 0.0431) was 850.57 ± 0.55 kg/m3, the mass density ([3]; x2 = 0.0825) was 842.28 ± 0.55 kg/m3 and the mass density ([3]; x2 = 0.1572) was 826.64 ± 0.55 kg/m3. It also gave a mass density ([3]; x2 = 0.2093) of 815.69 ± 0.55 kg/m3, a mass density ([3]; x2 = 0.2575) of 805.59 ± 0.56 kg/m3 and a mass density ([3]; x2 = 0.2997) of 796.8 ± 0.56 kg/m3. It also gave a mass density ([3]; x2 = 0.3563) of 785.03 ± 0.56 kg/m3, a mass density ([3]; x2 = 0.4278) of 770.24 ± 0.57 kg/m3 and a mass density ([3]; x2 = 0.483) of 758.86 ± 0.58 kg/m3. It also gave a mass density ([3]; x2 = 0.5167) of 751.98 ± 0.58 kg/m3, a mass density ([3]; x2 = 0.5833) of 738.31 ± 0.6 kg/m3 and a mass density ([3]; x2 = 0.6294) of 728.97 ± 0.6 kg/m3. It also gave a mass density ([3]; x2 = 0.6769) of 719.32 ± 0.61 kg/m3, a mass density ([3]; x2 = 0.7318) of 708.21 ± 0.62 kg/m3 and a mass density ([3]; x2 = 0.7817) of 698.13 ± 0.63 kg/m3. It also gave a mass density ([3]; x2 = 0.8329) of 687.89 ± 0.65 kg/m3, a mass density ([3]; x2 = 0.8914) of 676.22 ± 0.66 kg/m3 and a mass density ([3]; x2 = 0.9446) of 665.65 ± 0.67 kg/m3. The refractive index ([4]; x2 = 0.0431) was 1.4891 ± 0.0007, the refractive index ([4]; x2 = 0.083) was 1.484 ± 0.0007 and the refractive index ([4]; x2 = 0.1562) was 1.4748 ± 0.0007. The refractive index ([4]; x2 = 0.2093) was 1.4682 ± 0.0007, the refractive index ([4]; x2 = 0.2997) was 1.4569 ± 0.0007 and the refractive index ([4]; x2 = 0.3521) was 1.4502 ± 0.0007. It also gave a refractive index ([4]; x2 = 0.4276) of 1.4409 ± 0.0007, a refractive index ([4]; x2 = 0.5167) of 1.43 ± 0.0007 and a refractive index ([4]; x2 = 0.5798) of 1.4223 ± 0.0006. The refractive index ([4]; x2 = 0.6769) was 1.4106 ± 0.0006, the refractive index ([4]; x2 = 0.7318) was 1.404 ± 0.0006 and the refractive index ([4]; x2 = 0.8329) was 1.392 ± 0.0006. For the same compound, the refractive index ([4]; x2 = 0.8836) was 1.386 ± 0.0006 and the refractive index ([4]; x2 = 0.9325) was 1.3803 ± 0.0006.

With `CCCCCC` [hexane] the surface tension liquid-gas [1] was 17.91 ± 0.13 mN/m, the mass density [1] was 654.7 ± 0.47 kg/m3 and the refractive index [2] was 1.3723 ± 0.0004.

`CCCOC(=O)CC` [propyl propanoate] showed a surface tension liquid-gas [1] of 24.1 ± 0.19 mN/m, a mass density [1] of 875.53 ± 0.61 kg/m3 and a refractive index [2] of 1.3905 ± 0.0004.

With `CCCOC(=O)CC` [propyl propanoate] + Cc1cccc(C)c1 the refractive index ([4]; x1 = 0.0448) was 1.4894 ± 0.0007, the refractive index ([4]; x1 = 0.1176) was 1.4814 ± 0.0007 and the refractive index ([4]; x1 = 0.1702) was 1.4756 ± 0.0007. It also gave a refractive index ([4]; x1 = 0.2173) of 1.4704 ± 0.0007, a refractive index ([4]; x1 = 0.3134) of 1.4599 ± 0.0007 and a refractive index ([4]; x1 = 0.3923) of 1.4515 ± 0.0007. The refractive index ([4]; x1 = 0.4461) was 1.4458 ± 0.0007, the refractive index ([4]; x1 = 0.4902) was 1.4412 ± 0.0007 and the refractive index ([4]; x1 = 0.5421) was 1.4358 ± 0.0007. The refractive index ([4]; x1 = 0.5906) was 1.4308 ± 0.0007, the refractive index ([4]; x1 = 0.6442) was 1.4254 ± 0.0007 and the refractive index ([4]; x1 = 0.7474) was 1.4151 ± 0.0007. For the same compound, the refractive index ([4]; x1 = 0.7982) was 1.4101 ± 0.0007, the refractive index ([4]; x1 = 0.8483) was 1.4052 ± 0.0007 and the refractive index ([4]; x1 = 0.8942) was 1.4008 ± 0.0007. For the same compound, the refractive index ([4]; x1 = 0.9522) was 1.3952 ± 0.0007.
